Assay results as given in patent US10407409B2, “6-(5-hydroxy-1H-pyrazol-1-yl)nicotinamide inhibitors of PHD” (Takeda Pharmaceutical Company Limited, priority 2013, dated 2019).

Tests used:
[1] = molecular target: PHD2 enzyme (residues 181-417) (Homo sapiens (Human), UniProt Q9GZT9); test: Inhibition of PHD enzyme (LC/MS peptide hydroxylation assay); type: biochemical; conditions: PHD2 (residues 181-417) 5 nM, 60 min pre-incubation; -log(IC50), IC50 molar
Summary of the method: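 PHD2 (5 nM final) preincubated with inhibitor 60 min at RT in 50 mM HEPES, 50 mM KCl, 0.5 mM TCEP, 2 uM FeCl2, 0.1 mg/ml BSA, pH 7.3. Reaction started with biotin-peptide (1 uM), 2-oxoglutarate (2 uM), ascorbate (1 mM), quenched at 60 min; hydroxylated product by LC/MS, reported as pIC50.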

[2] = tested on: HIF1a protein in H9c2 rat cardiomyocytes; test: Cell-based HIF-alpha stabilization assay (inhibition of PHD in cells); conditions: Rattus norvegicus, H9c2, 24 h, 24 hrs compound incubation, HIF1a protein by ELISA, read-out: Inhibition of PHD in cells (pEC50) (converted)
Summary of the method: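 Rat H9c2 cardiomyocytes, cultured 24 h, were treated 24 h with an 11-point serial dilution of compound. HIF1a in whole-cell lysates was quantified by ELISA as % of the maximal desferrioxamine response. EC50 came from curve fitting; EC50pos is the concentration reaching 50% of the desferrioxamine maximum.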

PHD2 enzyme (residues 181-417), sequence (Q9GZT9 181-417): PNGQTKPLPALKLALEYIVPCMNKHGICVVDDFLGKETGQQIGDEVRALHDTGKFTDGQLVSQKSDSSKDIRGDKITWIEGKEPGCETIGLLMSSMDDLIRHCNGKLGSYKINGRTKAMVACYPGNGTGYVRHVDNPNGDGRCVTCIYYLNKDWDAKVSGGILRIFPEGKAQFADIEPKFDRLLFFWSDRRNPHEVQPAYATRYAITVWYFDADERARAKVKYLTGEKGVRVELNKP

SMILES | PHD Inhibition (pIC50) [1] | EC50 [2] [nM]
CCN1CCN(C(=O)c2ccc(-n3ncc(-c4ccc(C#N)c(F)c4C)c3O)nc2)[C@H](C)C1 [Example 330, (R)-4-(1-(5-(4-ethyl-2-methylpiperazine-1-carbonyl)pyridin-2-yl)-5-hydroxy-1H-pyrazol-4-yl)-2-fluoro-3-methylbenzonitrile] | 8.34 | 407
Cc1c(-c2cnn(-c3ccc(C(=O)N4CCC[C@@H](N(C)C5CC5)C4)cn3)c2O)ccc(C#N)c1F [Example 331, (R)-4-(1-(5-(3-(cyclopropyl(methyl)amino)piperidine-1-carbonyl)pyridin-2-yl)-5-hydroxy-1H-pyrazol-4-yl)-2-fluoro-3-methylbenzonitrile] | 8.33 | 813
Cc1c(-c2cnn(-c3ccc(C(=O)N4CCC[C@H](N(C)CC(F)(F)F)C4)cn3)c2O)ccc(C#N)c1F [Example 332, (S)-2-fluoro-4-(5-hydroxy-1-(5-(3-(methyl(2,2,2-trifluoroethyl)amino)piperidine-1-carbonyl)pyridin-2-yl)-1H-pyrazol-4-yl)-3-methylbenzonitrile] | 8.47 | 759
Cc1c(-c2cnn(-c3ccc(C(=O)N4CCC[C@H](N(C)CC(F)F)C4)cn3)c2O)ccc(C#N)c1F [Example 333, (S)-4-(1-(5-(3-((2,2-difluoroethyl)(methyl)amino)piperidine-1-carbonyl)pyridin-2-yl)-5-hydroxy-1H-pyrazol-4-yl)-2-fluoro-3-methylbenzonitrile] | 8.55 | 741
Cc1c(-c2cnn(-c3ccc(C(=O)N4CCN5CCC[C@@H]5C4)cn3)c2O)ccc(C#N)c1F [Example 334, (R)-2-fluoro-4-(5-hydroxy-1-(5-(octahydropyrrolo[1,2-a]pyrazine-2-carbonyl)pyridin-2-yl)-1H-pyrazol-4-yl)-3-methylbenzonitrile] | 8.50 | 1380
Cc1c(-c2cnn(-c3ccc(C(=O)N4CC(N5CCCCC5)C4)cn3)c2O)ccc(C#N)c1F [Example 335, 2-fluoro-4-(5-hydroxy-1-(5-(3-(piperidin-1-yl)azetidine-1-carbonyl)pyridin-2-yl)-1H-pyrazol-4-yl)-3-methylbenzonitrile] | 8.43 | 1320
Cc1c(-c2cnn(-c3ccc(C(=O)N4CCC[C@@H](N(C)CC(F)F)C4)cn3)c2O)ccc(C#N)c1F [Example 336, (R)-4-(1-(5-(3-((2,2-difluoroethyl)(methyl)amino)piperidine-1-carbonyl)pyridin-2-yl)-5-hydroxy-1H-pyrazol-4-yl)-2-fluoro-3-methylbenzonitrile] | 8.53 | 977
Cc1c(-c2cnn(-c3ccc(C(=O)N4CCN(C(C)C)[C@H](C)C4)cn3)c2O)ccc(C#N)c1F [Example 337, (R)-2-fluoro-4-(5-hydroxy-1-(5-(4-isopropyl-3-methylpiperazine-1-carbonyl)pyridin-2-yl)-1H-pyrazol-4-yl)-3-methylbenzonitrile] | 8.36 | 1350
CCN1CCN(C(=O)c2ccc(-n3ncc(-c4ccc(C#N)c(F)c4C)c3O)nc2)C[C@H]1C [Example 338, (R)-4-(1-(5-(4-ethyl-3-methylpiperazine-1-carbonyl)pyridin-2-yl)-5-hydroxy-1H-pyrazol-4-yl)-2-fluoro-3-methylbenzonitrile] | 8.40 | 933
Cc1c(-c2cnn(-c3ccc(C(=O)N4CCN(C(C)C)[C@@H](C)C4)cn3)c2O)ccc(C#N)c1F [Example 339, (S)-2-fluoro-4-(5-hydroxy-1-(5-(4-isopropyl-3-methylpiperazine-1-carbonyl)pyridin-2-yl)-1H-pyrazol-4-yl)-3-methylbenzonitrile] | 8.29 | 2040
Cc1c(-c2cnn(-c3ccc(C(=O)N4CCN(C)[C@H](C)C4)cn3)c2O)ccc(C#N)c1F [Example 340, (R)-4-(1-(5-(3,4-dimethylpiperazine-1-carbonyl)pyridin-2-yl)-5-hydroxy-1H-pyrazol-4-yl)-2-fluoro-3-methylbenzonitrile] | 8.39 | 759
CCN1CCN(C(=O)c2ccc(-n3ncc(-c4ccc(C#N)c(F)c4C)c3O)nc2)[C@@H](C)C1 [Example 341, (S)-4-(1-(5-(4-ethyl-2-methylpiperazine-1-carbonyl)pyridin-2-yl)-5-hydroxy-1H-pyrazol-4-yl)-2-fluoro-3-methylbenzonitrile] | 8.47 | 589
Cc1c(-c2cnn(-c3ccc(C(=O)N4CC5(CN(C)C5)C4)cn3)c2O)ccc(C#N)c1F [Example 342, 2-fluoro-4-(5-hydroxy-1-(5-(6-methyl-2,6-diazaspiro[3.3]heptane-2-carbonyl)pyridin-2-yl)-1H-pyrazol-4-yl)-3-methylbenzonitrile] | 7.60 | 427
Cc1cc(C#N)c(F)cc1-c1cnn(-c2ccc(C(=O)N3CC4(CN(C)C4)C3)cn2)c1O [Example 343, 2-fluoro-4-(5-hydroxy-1-(5-(6-methyl-2,6-diazaspiro[3.3]heptane-2-carbonyl)pyridin-2-yl)-1H-pyrazol-4-yl)-5-methylbenzonitrile] | 8.07 | 1150
Cc1cc(C#N)ccc1-c1cnn(-c2ccc(C(=O)N3CC(N4CCCCC4)C3)cn2)c1O [Example 344, 4-(5-hydroxy-1-(5-(3-(piperidin-1-yl)azetidine-1-carbonyl)pyridin-2-yl)-1H-pyrazol-4-yl)-3-methylbenzonitrile] | 8.17 | 468
Cc1cc(C#N)ccc1-c1cnn(-c2ccc(C(=O)N3CC(N(C)C)C3)cn2)c1O [Example 345, 4-(1-(5-(3-(dimethylamino)azetidine-1-carbonyl)pyridin-2-yl)-5-hydroxy-1H-pyrazol-4-yl)-3-methylbenzonitrile] | 8.35 | 363
Cc1cc(C#N)ccc1-c1cnn(-c2ccc(C(=O)N3CCC4(CCN(C)C4)C3)cn2)c1O (stereo not shown) [Example 346, 4-(5-hydroxy-1-(5-(7-methyl-2,7-diazaspiro[4.4]nonane-2-carbonyl)pyridin-2-yl)-1H-pyrazol-4-yl)-3-methylbenzonitrile] | 7.75 | 372
Cc1cc(C#N)ccc1-c1cnn(-c2ccc(C(=O)N3CCC(N4CCOCC4)C3)cn2)c1O (stereo not shown) [Example 347, 4-(5-hydroxy-1-(5-(3-morpholinopyrrolidine-1-carbonyl)pyridin-2-yl)-1H-pyrazol-4-yl)-3-methylbenzonitrile] | 8.29 | 631
Cc1cc(C#N)ccc1-c1cnn(-c2ccc(C(=O)N3CCC[C@H]3CN3CCCC3)cn2)c1O [Example 348, (S)-4-(5-hydroxy-1-(5-(2-(pyrrolidin-1-ylmethyl)pyrrolidine-1-carbonyl)pyridin-2-yl)-1H-pyrazol-4-yl)-3-methylbenzonitrile] | 7.72 | 741
Cc1cc(C#N)ccc1-c1cnn(-c2ccc(C(=O)N3CCC(CN(C)C)C3)cn2)c1O (stereo not shown) [Example 349, 4-(1-(5-(3-((dimethylamino)methyl)pyrrolidine-1-carbonyl)pyridin-2-yl)-5-hydroxy-1H-pyrazol-4-yl)-3-methylbenzonitrile] | 7.77 | 479
